Source: patent US12458643B2, “Antidepressant/anxiolytic drug in which PAC1 receptor antagonist is used” (KAGOSHIMA UNIVERSITY, priority 2020, dated 2025)

Columns and labels:
[1] = system: single-restraint stress mice; assay: Single-restraint stress-induced anxiety-like behavior, light-dark test; format: in vivo, mouse; settings: 30 mg/kg i.p. 30 min before 30 min restraint; 10 min test
Protocol: Male C57BL/6J mice (8 to 12 weeks old) were acclimatized to a laboratory (illuminance: 330 lx) for 60 minutes. Then, a vehicle (10% DMSO solution; dissolved in saline; n=9), PA-8 (30 mg/kg; n=9) or PA-81004 (30 mg/kg; n=10) was intraperitoneally administered thereto (0.1 mL/10 g). After a lapse of 30 minutes after administration, restraint stress (stress caused by holding the mice in tubes of 2.8 cm in diameter with a hole for breathing) was applied thereto for 30 minutes. The light-dark test (10 min) was conducted from immediately after the completion of restraint. Mice that freely behaved in a home cage for 30 minutes without being held and without accessing water and food were used as a control (n=12). The results are shown in FIG. 10 (A: time spent in the light box, B: the number of transitions between the light and dark boxes; light box illuminance: 330 lx). The data was indicated by mean±standard error. **P<0.01, *P<0.05 (One-way ANOVA followed by Tukey-Kramer test). […] Male C57BL/6J mice (8 to 12 weeks old) were acclimatized to a laboratory (illuminance: 330 lx) for 60 minutes. Then, a vehicle (10% DMSO solution; dissolved in saline; n=11), PA-9 (30 mg/kg; n=8) or PA-915 (30 mg/kg; n=9) was intraperitoneally administered thereto (0.1 mL/10 g). After a lapse of 30 minutes after administration, restraint stress (stress caused by holding the mice in tubes of 2.8 cm in diameter with a hole for breathing) was applied thereto for 30 minutes. The light-dark test (10 min) was conducted from immediately after the completion of restraint. Mice that freely behaved in a home cage for 30 minutes without being held and without accessing water and food were used as a control (n=11). The results are shown in FIG. 12 (A: time spent in the light box, B: the number of transitions between the light and dark boxes; light box illuminance: 330 lx). The data was indicated by mean±standard error. **P<0.01, *P<0.05 (One-way ANOVA followed by Tukey-Kramer test).

[2] = system: chronic social defeat stress mice; assay: Chronic social defeat stress, social preference or avoidance test (SPAT); format: in vivo, mouse; settings: for effect on chronic social defeat stress-induced social behavioral abnormality (SPAT): 30 mg/kg i.p. once daily for 7 consecutive days, SPAT 30 min after final administration (Day 18); for sustained effect on social behavioral abnormality (social interaction ratio) / effect on social behavioral abnormality (social interaction ratio): Example 18; for sustained effect on social behavioral abnormality (social interaction ratio): 7, 14, 28 days after single i.p. dose (PA-915 30 mg/kg, ketamine 20 mg/kg), fluoxetine 20 mg/kg i.p. 14-day consecutive administration; for effect on social behavioral abnormality (social interaction ratio): single i.p. dose (PA-915 30 mg/kg, ketamine 20 mg/kg, fluoxetine 20 mg/kg), 60 minutes later (Day 12)
Text: When male C57BL/6N mice (8 to 12 weeks old) are allowed to coexist with ICR mice having a large physical size, the male C57BL/6N mice run about in the beginning in order to avoid attack by the ICR mice, but eventually make a posture to immediately raise their forelegs and accept defeats (obedience) by repeated load for 5 days to 10 days (chronic social defeat stress (SDS) load).
The social preference or avoidance test (SPAT) is a test that has received attention in recent years as a highly extrapolatable antidepressant drug screening system. SPAT evaluates the degree of interest in others (sociality). A box (which has a wired contact surface) is disposed in an open field. A time of contact with a target (time spent in an interaction zone) and a time spent in an avoidance zone are measured without the target (ICR mice) placed in the box in the first run and with the target (ICR mice) placed in the box in the second run. Time spent in the second run/Time spent in the first run is calculated (social interaction ratio). The social interaction ratio is decreased in chronic social defeat stress mice. Stress susceptibility differs among individuals, and susceptible individuals (social interaction ratio <1) and resilient individuals (social interaction ratio 1) are found.
(§1) Chronic social defeat stress was applied at 10 min/day for 10 days (Days 1 to 10) to male C57BL/6N mice (8 to 12 weeks old) each reared in isolation for 10 days or longer. On Day 11, the social preference or avoidance test (SPAT) was conducted, and susceptible mice were selected. A vehicle (10% DMSO solution; dissolved in saline; n=12) or PA-8 (30 mg/kg; n=9) was intraperitoneally administered once daily (0.1 mL/10 g) for 7 consecutive days from day 12. SPAT was conducted for 150 seconds 30 minutes after the final administration on the 7th day (Day 18). Mice reared for 10 days in a home cage without chronic social defeat stress load were used as a control (n=12). The results are shown in FIG. 15 (A: social interaction ratio, B: time spent in the interaction zone, C: time spent in the avoidance zone). The data was indicated by mean±standard error. *P<0.05 (One-way ANOVA followed by Tukey-Kramer test).
as §1, with “or PA-9” for “or PA-8”, “FIG. 17” for “FIG. 15”, “zone). […]” for “zone).”
Chronic social defeat stress was applied at 10 min/day for 10 days (Days 1 to 10) to male C57BL/6N mice (8 to 12 weeks old) each reared in isolation for 10 days or longer. On Day 11, the social preference or avoidance test (SPAT) was conducted, and susceptible mice were selected. On the next day (Day 12), a vehicle (10% DMSO solution; dissolved in saline; n=17) or PA-915 (30 mg/kg; n=17) was intraperitoneally administered (0.1 mL/10 g) to the mice. SPAT was conducted for 150 seconds 60 minutes later. Mice reared for 10 days in a home cage without chronic social defeat stress load were used as a control (n=22). The results are shown in FIG. 19 (A: social interaction ratio, B: time spent in the interaction zone, C: time spent in the avoidance zone). […] The data was indicated by mean±standard error. **P<0.01; *P<0.05 (One-way ANOVA followed by Tukey-Kramer test). […]

SMILES	effect on single-restraint stress-induced anxiety-like behavior (light-dark test) [1]	effect on chronic social defeat stress-induced social behavioral abnormality (SPAT) [2]	sustained effect on social behavioral abnormality (social interaction ratio) [2]	effect on social behavioral abnormality (social interaction ratio) [2]
Nc1nc2c(c(=O)[nH]1)C(c1cccc(OC(F)(F)F)c1)CC(=O)N2 (stereo not drawn) [PA-81004, 2-Amino-5-(3-trifluoromethoxyphenyl)-5,8-dihydro-3H,6H-pyrido[2,3-d]pyrimidine-4,7-dione]	improving effects			
C=CCOc1ccc(C2CC(=O)Nc3nc(N)[nH]c(=O)c32)cc1OC (stereo not drawn) [PA-8]	improving effects	improving effect		
CNC1(c2ccccc2Cl)CCCCC1=O (stereo not drawn) [ketamine]			maintained its effectiveness 7, 14, and 28 days later	improved social behavioral abnormality
CNCCC(Oc1ccc(C(F)(F)F)cc1)c1ccccc1 (stereo not drawn) [fluoxetine]			neither the single-dose administration nor 14-day consecutive administration of fluoxetine improved social behavioral abnormality	neither the single-dose administration nor 14-day consecutive administration of fluoxetine improved social behavioral abnormality
O=C(NCCc1c[nH]cn1)C1CC(=O)N(c2n[nH]c3ccccc23)C1 (stereo not drawn) [PA-9]	improving effects	tended to improve social behavioral abnormality		
